Patent publication US10508120B2, “TYK2 inhibitors and uses thereof” (Nimbus Lakshmi, Inc., priority 2017, dated 2019)
Read-outs that look alike come from different tables or passages of the source.

Columns and labels:
[1] = target: JAK2 kinase domain (JH1) (Homo sapiens (Human), UniProt O60674); test: JAK2 Radioactive Kinase Assay; format: biochemical; conditions: for inhibition at 10 µM: read-out: JAK2 JH1% Inhibition @ 10 μM
Procedure, shortened: (§1)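 Read-out is percent inhibition from a radioactive kinase reaction, measured with compound at 10 μM.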

[2] = target: human TYK2 (JH2domain-pseudokinase) (Homo sapiens (Human), UniProt P29597); test: TYK2 JH2 Domain Binding Assay (KINOMEscan)
Chain of human TYK2 (JH2domain-pseudokinase) (P29597 556-888): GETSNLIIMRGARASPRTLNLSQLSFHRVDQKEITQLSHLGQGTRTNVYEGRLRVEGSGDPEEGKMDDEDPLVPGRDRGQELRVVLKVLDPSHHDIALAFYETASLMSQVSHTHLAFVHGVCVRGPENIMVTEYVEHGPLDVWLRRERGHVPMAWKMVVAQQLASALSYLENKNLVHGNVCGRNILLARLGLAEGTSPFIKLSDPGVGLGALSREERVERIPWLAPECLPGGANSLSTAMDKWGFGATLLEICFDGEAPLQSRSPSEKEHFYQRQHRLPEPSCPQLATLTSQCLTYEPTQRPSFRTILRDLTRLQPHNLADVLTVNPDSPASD
Procedure, shortened: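 Competition binding of an NFkB-DBD fusion of human TYK2 JH2 (G556–D888), expressed in HEK293 and used as crude extract at <0.1 nM, against immobilized ligand beads; 1 h at room temperature in PBS/Tween/DTT/BSA buffer, 0.9% DMSO.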

[3] = target: Tyk2 kinase domain (DH1) (Homo sapiens (Human), UniProt P29597); test: Tyk2 Radioactive Kinase Assay; format: biochemical; conditions: for inhibition at 10 µM: read-out: Tyk2 JH1% Inhibition @ 10 μM
Chain of Tyk2 kinase domain (DH1) (P29597 897-1176): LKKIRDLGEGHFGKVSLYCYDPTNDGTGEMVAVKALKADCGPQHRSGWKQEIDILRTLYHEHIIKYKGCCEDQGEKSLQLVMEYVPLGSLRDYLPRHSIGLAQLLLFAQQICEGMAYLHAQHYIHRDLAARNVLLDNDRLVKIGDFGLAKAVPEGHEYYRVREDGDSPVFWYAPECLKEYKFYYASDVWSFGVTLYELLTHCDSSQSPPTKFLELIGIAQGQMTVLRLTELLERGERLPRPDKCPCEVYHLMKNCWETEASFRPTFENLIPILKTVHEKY
Procedure, shortened: as §1

Chain of JAK2 kinase domain (JH1) (O60674 849-1124): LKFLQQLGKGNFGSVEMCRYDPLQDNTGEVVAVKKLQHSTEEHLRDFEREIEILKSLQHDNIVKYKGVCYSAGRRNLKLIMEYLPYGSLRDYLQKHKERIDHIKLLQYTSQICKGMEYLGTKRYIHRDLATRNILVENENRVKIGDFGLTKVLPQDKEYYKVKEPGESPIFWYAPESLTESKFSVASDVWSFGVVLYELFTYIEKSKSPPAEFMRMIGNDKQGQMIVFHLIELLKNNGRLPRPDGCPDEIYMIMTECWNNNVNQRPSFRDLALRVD

inhibition at 10 µM ([1]; compound at 10 μM, ATP 10 μM) [%]	Kd [2] [pM]	inhibition at 10 µM ([3]; compound at 10 μM, ATP 10 μM) [%]	SMILES	also measured
< 50	< 200	< 50	CNc1cc(Nc2cccn([C@H]3CC[C@H](O)CC3)c2=O)nc2c(C(=O)N[C@H]3C[C@H]3F)cnn12 [I-166]	
< 50	< 200	< 50	[2H]C([2H])([2H])Oc1ncc(F)cc1Nc1cc(NC)n2ncc(C(=O)N[C@H]3C[C@H]3F)c2n1 [I-289]	
< 50	< 200	< 50	CNc1cc(Nc2cc(Cl)cn(-c3ccnc(C)n3)c2=O)nc2c(C(=O)NC3CC3)cnn12 [I-316]	
< 50	< 200	< 50	CNc1cc(Nc2cccc(N3CC4(CCO4)C3)n2)nc2c(C(=O)NC3CC3)cnn12 [I-618]	
< 50	< 200	< 50	CNc1cc(Nc2cccn(-c3nc(C)co3)c2=O)nc2c(C(=O)NC[C@@H](C)CO)cnn12 [I-737]	
< 50	< 200	< 50	CNc1cc(Nc2cccn3cnnc23)nc2c(C(=O)N[C@@H]3CC[C@@H]3O)cnn12 [I-662]	
	< 200		[2H]C([2H])([2H])Oc1ncccc1Nc1cc(NC)n2ncc(C(=O)N[C@H]3CCC[C@H](O)C3)c2n1 [I-498]	JAK2 JH1% Inhibition @ 10 μM ([1]; compound at 10 μM, ATP 10 μM): A (percent inhibition at 10 μM lower than 50); Tyk2 JH1% Inhibition @ 10 μM ([3]; compound at 10 μM, ATP 10 μM): A (percent inhibition at 10 μM lower than 50)
< 50	< 200	< 50	CNc1cc(-c2cn(CCN3CCOCC3)c3ncccc23)nc2c(C(=O)N[C@@H]3CC[C@H]3O)cnn12 [I-792, N-(2-hydroycyclobutyl)-7-(methylamino)-5-(1-(2-morpholinoethyl)-1H-pyrrolo[2,3-b]pyridine-3-yl)pyrazolo[1,5-a]pyrimidine-3-carboxamide]	
< 50	1000 to 10000	< 50	CCOc1ccc(-n2cccc(Nc3cc(NC)n4ncc(C(N)=O)c4n3)c2=O)nn1 [I-19]	
< 50	200 to 1000	< 50	CNc1cc(Nc2cccnc2OC)nc2c(C(=O)NCCC(C)(C)O)cnn12 [I-420, N-(3-hydroxy-3-methylbutyl)-5-((2-methoxypyridin-3-yl)amino)-7-(methylamino)pyrazolo[1,5-a]pyrimidine-3-carboxamide]	
< 50	200 to 1000	< 50	CNc1cc(Nc2cccn([C@H]3CCCOC3)c2=O)nc2c(C(=O)N[C@H]3CCC[C@H](O)C3)cnn12 (stereo in doubt) [I-704, N-(3-hydroxycyclohexyl)-7-(methylamino)-5-((2-oxo-1-((R)-tetrahydro-2H-pyran-3-yl)-1,2-dihydropyridin-3-yl)amino)pyrazolo[1,5-a]pyrimidine-3-carboxamide]	
< 50	200 to 1000	< 50	CNc1cc(Nc2cccnc2C(C)(F)F)nc2c(C(=O)NC3CC3)cnn12 [I-297]	
< 50	< 200	< 50	CNc1cc(-c2cn(CCN3CCN(C)CC3)c3ncccc23)nc2c(C(=O)N[C@H]3C[C@H]3F)cnn12 [I-617]	
< 50	< 200	< 50	CNc1cc(Nc2cccn(-c3ccc(C)nc3)c2=O)nc2c(C(=O)N[C@@H]3C[C@@H]3F)cnn12 [I-766]	
< 50	< 200	< 50	[2H]C([2H])([2H])Oc1ncccc1Nc1cc(NC)n2ncc(C(=O)N[C@H]3CC[C@H](O)C3)c2n1 [I-462]	
	1000 to 10000		CNc1cc(-c2cn(CCN3CCOCC3)c3ncccc23)nc2c(C(=O)N[C@@H]3COC[C@@H]3O)cnn12 [I-855, N-((3R,4R)-4-hydroxytetrahydrofuran-3-yl)-7-(methylamino)-5-(1-(2-morpholinoethyl)-1H-pyrrolo[2,3-b]pyridin-3-yl)pyrazolo[1,5-a]pyrimidine-3-carboxamide]	inhibition at 10 µM ([1]; 10 μM compound, 10 μM ATP): < 50%; inhibition at 10 µM ([3]; 10 μM compound, 10 μM ATP): < 50%

inhibition at 10 µM ([1]; compound at 10 μM, ATP 10 μM) [%]	Kd [2] [pM]	inhibition at 10 µM ([3]; compound at 10 μM, ATP 10 μM) [%]	SMILES	also measured
< 50	< 200	< 50	CNc1cc(Nc2cccc([C@H]3CCCOC3)n2)nc2c(C(=O)N[C@H]3COC[C@H]3O)cnn12 [I-692]	
< 50	1000 to 10000	< 50	CNc1cc(Nc2cc(C)cnc2OC(C)C)nc2c(C(=O)NC3CCC3)cnn12 [I-213]	
	1000 to 10000		CNc1cc(Nc2cccn(C3CCCCC3)c2=O)nc2c(C(=O)N[C@H]3CC[C@H]3O)cnn12 [I-1001]	JAK2 JH1% Inhibition @ 10 μM ([1]; 10 μM compound, 10 μM ATP): A (percent inhibition at 10 μM lower than 50); Tyk2 JH1% Inhibition @ 10 μM ([3]; 10 μM compound, 10 μM ATP): A (percent inhibition at 10 μM lower than 50)
< 50	200 to 1000	< 50	CNc1cc(Nc2cccnc2OC2CCOCC2)nc2c(C(=O)NC3CCC3)cnn12 [I-185]	
< 50	< 200	< 50	CNc1cc(Nc2cccn(-c3cnn(C[C@H]4CCOC4)c3)c2=O)nc2c(C(=O)NC3CC3)cnn12 [I-601]	
< 50	< 200	< 50	CNc1cc(Nc2cc(C)cnc2OCCOC)nc2c(C(=O)N[C@H]3C[C@H]3F)cnn12 [I-280]	
	> 10000		CNc1cc(Nc2cccn([C@H]3CCC[C@@H](OC)C3)c2=O)nc2c(C(=O)N[C@H]3CC[C@@H]3OC)cnn12 [I-1125]	inhibition at 10 µM ([1]; 10 μM compound, 10 μM ATP): < 50%; inhibition at 10 µM ([3]; 10 μM compound, 10 μM ATP): < 50%
< 50	< 200	< 50	CNc1cc(Nc2cccc(N3CCC4(CCCO4)CC3)n2)nc2c(C(=O)N[C@H]3C[C@H]3F)cnn12 [I-656]	
< 50	200 to 1000	< 50	CC(C)Oc1ncccc1Nc1cc(N)n2ncc(C(N)=O)c2n1 [I-77]	
< 50	< 200	< 50	CNc1cc(Nc2cccnc2O[C@H]2CC[C@H](O)CC2)nc2c(C(=O)N[C@H]3C[C@H]3F)cnn12 [I-239]	
	< 200		CNc1cc(Nc2cccn(C3CCN(CCF)CC3)c2=O)nc2c(C(=O)N[C@@H]3CC[C@H]3O)cnn12 [I-845]	inhibition at 10 µM ([1]; 10 μM compound, 10 μM ATP): < 50%; inhibition at 10 µM ([3]; 10 μM compound, 10 μM ATP): < 50%
< 50	< 200	< 50	CNc1cc(Nc2cccnc2O[C@H]2C[C@@H](OC)C2)nc2c(C(=O)NC3CCC3)cnn12 [I-183]	
	1000 to 10000		CNc1cc(Nc2cccn(-c3cnco3)c2=O)nc2c(C(=O)N[C@@H]3CC[C@@H]3O)cnn12 [I-1018]	inhibition at 10 µM ([1]; 10 μM compound, 10 μM ATP): < 50%; inhibition at 10 µM ([3]; 10 μM compound, 10 μM ATP): < 50%
	200 to 1000		CNc1cc(Nc2cccc([C@@H]3CCCOC3)n2)nc2c(C(=O)N[C@@H]3CC[C@@H]3O)cnn12 [I-643]	JAK2 JH1% Inhibition @ 10 μM ([1]; compound at 10 μM, ATP 10 μM): A (percent inhibition at 10 μM lower than 50); Tyk2 JH1% Inhibition @ 10 μM ([3]; compound at 10 μM, ATP 10 μM): A (percent inhibition at 10 μM lower than 50)
< 50	< 200	< 50	CNc1cc(Nc2cccn(-c3ccnn3C)c2=O)nc2c(C(=O)N[C@H]3C[C@H]3F)cnn12 [I-335]	
	< 200		CNc1cc(Nc2cccn([C@H]3CC[C@@H]3OC)c2=O)nc2c(C(=O)N[C@@H]3C[C@@H]3F)cnn12 [I-997]	JAK2 JH1% Inhibition @ 10 μM ([1]; 10 μM compound, 10 μM ATP): A (percent inhibition at 10 μM lower than 50); Tyk2 JH1% Inhibition @ 10 μM ([3]; 10 μM compound, 10 μM ATP): A (percent inhibition at 10 μM lower than 50)
